Source: ChEMBL document CHEMBL1128066, “Synthesis and antiviral activity of dihydroxycyclohexyl pyrimidine and purine carbocyclic nucleosides” (Bioorg Med Chem Lett, 1995)

What was measured:
Format in all cases: functional, cell-based
Vero [1] = experiment: Antiviral activity was evaluated by the plaque reduction method against Herpes virus 1 (HSV-1) in Vero cells; conditions: Chlorocebus sabaeus
PEU [2] = experiment: Antiviral activity was evaluated by the plaque reduction method against Cytomegalovirus (CMV) in PEU cells; conditions: Homo sapiens
Vero [3] = experiment: Antiviral activity was evaluated by the plaque reduction method against Herpes virus 2 (HSV-2) in Vero cells; conditions: Chlorocebus sabaeus
PEU [4] = experiment: Compound was tested for its overt cytotoxicity in virus free PEU cell culture; conditions: Homo sapiens

SMILES	EC50 (PEU [2]) [µM]	EC50 (Vero [1]) [µM]	EC50 (Vero [3]) [µM]	IC50 (PEU [4]) [µM]
O=c1ccn([C@@H]2CC[C@H](OCc3ccccc3)C[C@H]2O)c(=O)[nH]1	10	158	158	> 250
O=c1ccn([C@@H]2C[C@@H](OCc3ccccc3)CC[C@H]2O)c(=O)[nH]1	10	10	10	> 250
Nc1nc(O)c2ncn(C3CCC(OCc4ccccc4)CC3O)c2n1 (configuration not stated)	140	21.2	22.1	> 250
O=c1ccn(C2CC(O)CCC2O)c(=O)[nH]1 (configuration not stated)	0.97	10	0.97	> 250
O=c1ccn(C2CCC(O)CC2O)c(=O)[nH]1 (configuration not stated)	10	0.97	0.97	> 250

The next lines start with results.

EC50 (PEU [2]) [µM]	SMILES	EC50 (Vero [1]) [µM]	EC50 (Vero [3]) [µM]	IC50 (PEU [4]) [µM]
188	Nc1nc(O)c2ncn(C3CCC(O)CC3O)c2n1 (configuration not stated)	188	188	> 250
200	Nc1ncnc2c1ncn2C1CCC(O)CC1O (configuration not stated)	28.5	30	> 250
147	Nc1ncnc2c1ncn2C1CCC(OCc2ccccc2)CC1O (configuration not stated)	16.8	16.2	> 250
